# In patent EP3431088A1, “MNTBAP FOR USE IN INDUCING A TRANSIENT IMMUNE TOLERANCE” (priority 2017, dated 2019):
# Legend:
# CD4 = test: Time-lapse microscopy of CD4 cell surface fluorescence; assay type: cell-based, murine; conditions: time lapse for 4 hours, 400 µM, vs control
# Protocol: Murine splenic CD4^+ T cells are first stained with CFSE, according to the manufacturer's recommendations (Invitrogen), and then with rat anti-mouse CD4-APC (RM4-5, BD Biosciences) mAb. After staining, cells are incubated in Ibidi's µ-chambers culture dish (Ibidi, Nanterre, France) in the thermo-regulated chamber of the Zeiss Axiovert 100 M confocal microscope. A time lapse acquisition is performed with a delay of 120 sec between frames. Each frame is illuminated using a 488 nm and 633 nm lasers, and fluorescence collected using 505-580 nm and 644-719 nm filters. The magnification is 40x/1.3 oil and images are saved as 8bits. The image stack is splitted using ImageJ-1.43, and images analyzed using CellProfiler 2.0.10415. The cell segmentation is performed on the CFSE fluorescence, and the fluorescence of the CD4 staining analyzed using the R software. Intensity is normalized to the maximum fluorescence measured at T0 for each condition.
# [1] = tested on: splenic T-lymphocyte subsets; test: Absolute numbers of splenic T-lymphocyte subsets by flow cytometry; assay type: in vivo, mice; conditions: 15 days post first injection, after gene transfer, vs PBS
# Protocol: MnTBAP (Calbiochem, San Diego, USA or Enzo Life Sciences, Farmingdale, USA) is dissolved in 75 mM NaOH to constitute a 20 mM stock solution. MnTBAP is dissolved in the complete medium, used for in vitro treatment, containing RPMI-1640 supplemented with 10% heat-inactivated fetal calf serum, 100 U/ml penicillin/streptomycin, 2 mM glutamax and 50 µM β-mercaptoethanol β-ME). Hypertonic medium, used to block clathrin dependent endocytosis, is complete medium supplemented with 0.45 M sucrose. For in vivo treatment, the stock solution is diluted with PBS and administered at 80 mg/kg intraperitoneally daily during five days. Control animals are injected with equivalent volume of PBS.
# Intramuscular (IM) injection: Two hours post first intraperitoneal (IP) injection of MnTBAP, mice are anesthetized by IP injection of xylazine (10 mg/kg) and ketamine (100 mg/kg) and 25 µl of a rAAV2/1 CMV SGCA HY viral preparation containing 2.5.10^9 vg is injected in the left tibialis anterior muscle (TA). Controls are injected with PBS. Mice are sacrificed 15 days after vector injection and the injected muscles are harvested to perform histologic analysis. Spleens are harvested to analyze transgene-specific T cell response.
# After mechanic disruption of the spleen, erythrocytes are eliminated by hypotonic shock with ammonium chloride potassium (ACK) lysing buffer. […]
# [2] = tested on: lentiviral vectors pseudotyped with HIV-1 envelope protein (HXB2-env); test: Transduction of human CD3+ T cells by HXB2-env pseudotyped lentiviral vectors (GFP); assay type: cell-based; conditions: 400 µM, 72 hours post transduction, vs control
# Protocol: CD3^+ T cells, from peripheral blood of healthy individual donors, are purified by positive selection via MACS beads using a magnetic cell sorting system (Miltenyi Biotec). CD3^+ T cells are activated for 3 days at 37°C, 5% CO2 in plates coated with anti-CD3 (10 µg/ml) and anti-CD28 (10 µg/ml) antibodies (both from Miltenyi Biotec) and filled with RPMI 1640 medium supplemented with 10% heat-inactivated fetal calf serum, 100 U/ml penicillin/streptomycin, 2 mM glutamax, 100 IU/ml IL-2 (Miltenyi Biotec). Cells are then transferred on retronectin (20 µg/cm2) coated-plates, in the presence or absence of MnTBAP (400 µM), at a density of 2.5 x 10^5 cells/ml for transduction during 6 h with 6 x 10^7 physical particles (pp)/ml of HXB2-env pseudotyped lentiviral vectors expressing GFP reporter gene under the control of hPGK (human phosphoglycerate kinase 1). After transduction, cells are washed and further incubated for 72 h in fresh culture medium (RPMI 1640 medium supplemented as described above). Cells are then harvested for transduction efficiency analysis by FACS, determined as the percentage of viable (7AAD-) lymphoid cells expressing GFP^+. The data are normalized to be a percentage of the control value (none) from each experiment.
# CD4 and P56^Lck = test: CD4 immunoprecipitation probed with anti-p56Lck; assay type: cell-based; conditions: viable murine splenic enriched CD4+ T cells, 2 hours, 400 µM
# Protocol: Cells, harvested after 2 hours of culture with or without MnTBAP, are resuspended in solubilization buffer containing 1% NP-40 (Sigma-Aldrich), 0.1 M (NH4)2SO4, 20 mM Tris (pH 7.5), 10% glycerol, 25 mM NaF (Sigma-Aldrich), 1 mM Na3VO4 (Thermo Fisher Scientific, Villebon-sur-Yvette, France) and 1x protease inhibitor mixture (Roche, Basel, Switzerland). After 30 minutes of incubation under gentle agitation, cell lysates are centrifuged at 14,000 x g for 30 minutes. Lysates are frozen in aliquots at -20°C or used immediately. Immunoprecipitation is performed by incubation overnight of lysates with rat anti-mouse CD4 (GK 1.5, Biolegend, San Diego, CA, USA) under gentle agitation at 4°C. The antigen-antibody complex is then added to Protein A/G resin slurry (Pierce, Thermo Fisher scientific), and incubated with gentle mixing for 2 hours at room temperature, and finally microcentrifuged for 30 seconds. The pellet is washed five times with solubilization buffer, and the immunoprecipitated material is eluted by incubating the complex for 2-5 minutes at 95-100°C in Laemmli sample buffer prepared without β-ME. […] Infrared fluorescence of the secondary antibodies was read on an Odyssey Imaging System, and quantification of bands was performed using the ImageStudio Lite software (LI-COR Biosciences).
compound,measurement,setting,value
"O=C(O)c1ccc(-c2c3nc(c(-c4ccc(C(=O)O)cc4)c4ccc([n-]4)c(-c4ccc(C(=O)O)cc4)c4nc(c(-c5ccc(C(=O)O)cc5)c5ccc2[n-]5)C=C4)C=C3)cc1.[Mn+3] [MnTBAP, manganese [III] tetrakis (4-benzoic acid) porphyrin]",CD4 cell surface fluorescence over time,CD4,CD4 declines on CD4^+ T cells
same,absolute number of splenic CD4^+ T cells,[1],significant decrease in the absolute number
same,absolute number of splenic CD8^+ T cells,[1],significant decrease in the absolute number
same,transduction efficiency of human T cells (GFP^+ cells),[2],significantly decreased
same,link between CD4 and P56^Lck,CD4 and P56^Lck,disruption of CD4 and P56^Lck is observed
